Test results published in ChEMBL document CHEMBL1150688, “Guieranone A, a naphthyl butenone from the leaves of Guiera senegalensis with antifungal activity” (2003).
Active and inactive are the calls of the source. The rule behind the calls is not given here.

System: Cladosporium cucumerinum
Experiment: Antifungal activity against Cladosporium cucumerinum assessed as drug level causing inhibition of fungal growth after 2 days by TLC based bioautography
Assay type: functional

Structure (SMILES) | Activity | INH [µg]
COc1cc(OC)c2c3c(c(OC)cc2c1)C(=O)CC(C)O3 (stereo not drawn) | inactive | –
COc1cc(OC)c2c(c1)cc(OC)c1c(=O)cc(C)oc12 | inactive | –
C/C=C/C(=O)c1c(OC)cc2cc(OC)cc(OC)c2c1OC [GUIERANONE A] | – | 1
